Values quoted from earlier work as cited in US20040116403A1, “Superoxide dismutase mimics for the treatment of ocular disorders and diseases” (priority 2002, published 2004).

Columns and labels:
[1] = test system: IL-6 and MIP-2; details: rat stroke model; administration after induction of cerebral ischemia
[2] = rat stroke model; given either before or after induction of cerebral ischemia

SMILES	expression of pro-inflammatory proteins such as IL-6 and MIP-2 [1]	infarct volume [2]
CCn1cc[n+](CC)c1C1=C2C=CC3=[N+]2[Mn]24[n]5c1ccc5C(c1n(CC)cc[n+]1CC)=C1C=CC(=[N+]12)C(c1n(CC)cc[n+]1CC)=c1ccc([n]14)=C3c1n(CC)cc[n+]1CC [Compound 1]	attenuation of the increased expression of pro-inflammatory proteins	–
CC[n+]1ccccc1C1=C2C=CC3=[N+]2[Mn]24[n]5c1ccc5C(c1cccc[n+]1CC)=C1C=CC(=[N+]12)C(c1cccc[n+]1CC)=c1ccc([n]14)=C3c1cccc[n+]1CC [Compound 2]	–	reduces infarct volume
